Results as given in US12495798B2, “Nicotinamide compound and herbicidal composition comprising compound” (KOREA RESEARCH INSTITUTE OF CHEMICAL TECHNOLOGY, priority 2019, dated 2025).

How the values were obtained:
Assay type in all cases: in vivo
quack grass = test: Herbicidal activity test against upland field weeds (soil treatment test); parameters: key to Soil treatment herbicidal activity, quack grass: 0 (no control); 100 (complete control); details: 50 g ai/ha, scale 0 (no control) to 100 (complete control)
In short: (§1)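 Weed control scored visually on a 0 (none) to 100 (complete) scale versus untreated pots at 14 or 21 days in greenhouse (30±5 °C, 14 h light). Test compounds, 50 or 75 g a.i./ha in 50% acetone/0.1% Tween-20, hand-sprayed onto soil one day post-sowing.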

indian jointvetch = test: Herbicidal activity test against upland field weeds (foliar treatment test); parameters: key to Foliar treatment herbicidal activity, Indian jointvetch: 0 (no control); 100 (complete control); details: 50 g ai/ha, scale 0-100
In short: (§2)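 Visual 0–100 control ratings relative to untreated plants, taken 14 (or 21) days after spraying foliage at 50 or 75 g a.i./ha. Spray solution: 50% acetone with 0.1% Tween-20; plants kept in greenhouse at 30±5 °C, 14 h light/10 h dark.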

barnyard grass = test: Herbicidal activity test against upland field weeds (soil treatment test); parameters: key to Soil treatment herbicidal activity, barnyard grass: 0 (no control); 100 (complete control); details: 50 g ai/ha, scale 0 (no control) to 100 (complete control); for pest or weed control at 50 g/ha: Echinochloa crus-galli
In short: as §1

cocklebur = test: Herbicidal activity test against upland field weeds (foliar treatment test); details: Xanthium strumarium, 50 g ai/ha, scale 0-100
In short: as §2

velvetleaf = test: as above; parameters: key to Foliar treatment herbicidal activity, velvet leaf: 0 (no control); 100 (complete control); details: 50 g ai/ha; for pest or weed control at 50 g/ha: Abutilon theophrasti, scale 0-100, read-out: Foliar treatment herbicidal activity, velvet leaf; for Foliar treatment herbicidal activity, velvet leaf: scale 0-100
In short: as §2

bindweed [1] = test: Herbicidal activity test against upland field weeds (soil treatment test); parameters: key to Soil treatment herbicidal activity, Bindweed: 0 (no control); 100 (complete control); details: 50 g ai/ha, scale 0 (no control) to 100 (complete control)
In short: as §1

crabgrass = test: Herbicidal activity test against upland field weeds (foliar treatment test); details: Digitaria sanguinalis, 50 g ai/ha, scale 0-100
In short: as §2

bindweed [2] = test: as above; details: 50 g ai/ha, scale 0-100
In short: as §2

cotton = test: Phytotoxicity test for upland field crops (foliar treatment test); parameters: key: 0 (no harm); 9 (complete withered)
In short: (§3)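 Spray-booth foliar treatment of greenhouse-grown crops at 19˜300 g a.i./ha. Visual crop injury was scored 0–9 against untreated plants at 7 and 14 days.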

rice = test: as above; parameters: key: 0 (no harm); 9 (complete withered)
In short: as §3

soybean = test: as above; parameters: key: 0 (no harm); 9 (complete withered)
In short: as §3

wheat = test: as above; parameters: key: 0 (no harm); 9 (complete withered)
In short: as §3

corn = test: as above; parameters: key: 0 (no harm); 9 (complete withered)
In short: as §3

[3] = 50 g ai/ha, Cotton (7 days after treatment)
[4] = 50 g ai/ha, Cotton (14 days after treatment)
[5] = 100 g ai/ha, Cotton (7 days after treatment)
[6] = 100 g ai/ha, Cotton (14 days after treatment)
[7] = 50 g ai/ha, Rice (7 days after treatment)
[8] = 50 g ai/ha, Rice (14 days after treatment)
[9] = 100 g ai/ha, Rice (7 days after treatment)
[10] = 100 g ai/ha, Rice (14 days after treatment)
[11] = 50 g ai/ha, Soybean (7 days after treatment)
[12] = 50 g ai/ha, Soybean (14 days after treatment)
[13] = 100 g ai/ha, Soybean (7 days after treatment)
[14] = 100 g ai/ha, Soybean (14 days after treatment)
[15] = 50 g ai/ha, Wheat (7 days after treatment)
[16] = 50 g ai/ha, Wheat (14 days after treatment)
[17] = 100 g ai/ha, Wheat (7 days after treatment)
[18] = 100 g ai/ha, Wheat (14 days after treatment)
[19] = 50 g ai/ha, Corn (7 days after treatment)
[20] = 50 g ai/ha, Corn (14 days after treatment)
[21] = 100 g ai/ha, Corn (7 days after treatment)
[22] = 100 g ai/ha, Corn (14 days after treatment)

Structure (SMILES) | Soil treatment herbicidal activity, quack grass (quack grass) | pest or weed control at 50 g/ha (cocklebur) [%] | pest or weed control at 50 g/ha (crabgrass) [%] | pest or weed control at 50 g/ha (bindweed [2]) [%] | Foliar treatment phytotoxicity, Cotton (cotton; [3]) | Foliar treatment phytotoxicity, Cotton (cotton; [4]) | Foliar treatment phytotoxicity, Cotton (cotton; [5]) | Foliar treatment phytotoxicity, Cotton (cotton; [6]) | Foliar treatment phytotoxicity, Rice (rice; [7]) | Foliar treatment phytotoxicity, Rice (rice; [8]) | Foliar treatment phytotoxicity, Rice (rice; [9]) | Foliar treatment phytotoxicity, Rice (rice; [10]) | Foliar treatment phytotoxicity, Soybean (soybean; [11]) | Foliar treatment phytotoxicity, Soybean (soybean; [12]) | Foliar treatment phytotoxicity, Soybean (soybean; [13]) | Foliar treatment phytotoxicity, Soybean (soybean; [14]) | Foliar treatment phytotoxicity, Wheat (wheat; [15]) | Foliar treatment phytotoxicity, Wheat (wheat; [16]) | Foliar treatment phytotoxicity, Wheat (wheat; [17]) | Foliar treatment phytotoxicity, Wheat (wheat; [18]) | other results
Cn1ncnc1COc1nc(C(F)(F)F)ccc1C(=O)Nc1nnnn1C [Compound No. 1-45, 2-((1-methyl-1H-1,2,4-triazol-5-yl)methoxy)-N-(1-methyl-1H-tetrazol-5-yl)-6-(trifluoromethyl)nicotinamide] | 0 | 95 | 95 | 98 | 5 | 9 | 5 | 9 | 6 | 9 | 6 | 9 | 6 | 7.5 | 7 | 9 | 0 | 0 | 0 | 0 | pest or weed control at 50 g/ha (indian jointvetch): 70%; pest or weed control at 50 g/ha (barnyard grass): 98%; pest or weed control at 50 g/ha (velvetleaf): 80%; Soil treatment herbicidal activity, Bindweed (bindweed [1]): 0; Foliar treatment phytotoxicity, Corn (corn; [19]): 1; Foliar treatment phytotoxicity, Corn (corn; [20]): 0; Foliar treatment phytotoxicity, Corn (corn; [21]): 3; Foliar treatment phytotoxicity, Corn (corn; [22]): 2
Cn1nnnc1COCc1nc(C(F)(F)F)ccc1C(=O)Nc1nnnn1C [Compound No. 1-61, N-(1-methyl-1H-tetrazol-5-yl)-2-(((1-methyl-1H-tetrazol-5-yl)methoxy)methyl)-6-(trifluoromethyl)nicotinamide] | 0 | 98 | 95 | 70 | 3 | 6 | 0 | 7 | 4 | 6 | 5 | 6 | 6 | 9 | 0 | 9 | 4 | 3 | 0 | 6 | Foliar treatment herbicidal activity, Indian jointvetch (indian jointvetch): 100; pest or weed control at 50 g/ha (barnyard grass): 20%; Foliar treatment herbicidal activity, velvet leaf (velvetleaf): 100; Soil treatment herbicidal activity, Bindweed (bindweed [1]): 0; Foliar treatment phytotoxicity, Corn (corn; [19]): 0; Foliar treatment phytotoxicity, Corn (corn; [20]): 0; Foliar treatment phytotoxicity, Corn (corn; [21]): 0; Foliar treatment phytotoxicity, Corn (corn; [22]): 0
Cn1ncnc1COCc1nc(C(F)(F)F)ccc1C(=O)Nc1nnnn1C [Compound No. 1-102, 2-(((1-methyl-1H-1,2,4-triazol-5-yl)methoxy)methyl)-N-(1-methyl-1H-tetrazol-5-yl)-6-(trifluoromethyl)nicotinamide] | 0 | 80 | 70 | 60 | 4 | 8 | 5 | 9 | 6 | 8 | 7 | 9 | 5 | 8 | 6 | 9 | 2 | 2 | 3 | 3 | pest or weed control at 50 g/ha (indian jointvetch): 80%; pest or weed control at 50 g/ha (barnyard grass): 20%; pest or weed control at 50 g/ha (velvetleaf): 80%; Soil treatment herbicidal activity, Bindweed (bindweed [1]): 0; Foliar treatment phytotoxicity, Corn (corn; [19]): 6; Foliar treatment phytotoxicity, Corn (corn; [20]): 6; Foliar treatment phytotoxicity, Corn (corn; [21]): 6; Foliar treatment phytotoxicity, Corn (corn; [22]): 8
Cn1nnc(COc2nc(C(F)(F)F)ccc2C(=O)Nc2nnnn2C)n1 [Compound No. 2-1, N-(1-methyl-1H-tetrazol-5-yl)-2-((2-methyl-2H-tetrazol-5-yl)methoxy)-6-(trifluoromethyl)nicotinamide] | 0 | 60 | 95 | 60 | 6 | 8 | 6 | 9 | 4 | 3 | 5 | 4 | 5 | 6 | 6 | 6 | 0 | 0 | 0 | 0 | pest or weed control at 50 g/ha (indian jointvetch): 60%; Soil treatment herbicidal activity, barnyard grass (barnyard grass): 0; pest or weed control at 50 g/ha (velvetleaf): 30%; Soil treatment herbicidal activity, Bindweed (bindweed [1]): 0; Foliar treatment phytotoxicity, Corn (corn; [19]): 2; Foliar treatment phytotoxicity, Corn (corn; [20]): 1; Foliar treatment phytotoxicity, Corn (corn; [21]): 2; Foliar treatment phytotoxicity, Corn (corn; [22]): 2
CON(Cc1nnn(C)n1)c1nc(C(F)(F)F)ccc1C(=O)Nc1nnnn1C [Compound No. 2-30, 2-(methoxy((2-methyl-2H-tetrazol-5-yl)methyl)amino)-N-(1-methyl-1H-tetrazol-5-yl)-6-(trifluoromethyl)nicotinamide] | 0 | 98 | 95 | 60 | 0 | 0 | 3 | 8 | 3 | 5 | 5 | 7 | 0 | 0 | 6 | 6 | 2 | 1 | 3 | 3 | Foliar treatment herbicidal activity, Indian jointvetch (indian jointvetch): 100; Soil treatment herbicidal activity, barnyard grass (barnyard grass): 100; Foliar treatment herbicidal activity, velvet leaf (velvetleaf): 100; pest or weed control at 50 g/ha (bindweed [1]): 70%; Foliar treatment phytotoxicity, Corn (corn; [19]): 0; Foliar treatment phytotoxicity, Corn (corn; [20]): 0; Foliar treatment phytotoxicity, Corn (corn; [21]): 1; Foliar treatment phytotoxicity, Corn (corn; [22]): 1
